Assays:
[1] = system: normotensive Dutch Belted rabbits; assay: Intraocular pressure (IOP) after single dose in normotensive rabbits; type: in vivo, rabbit
Description: Water (pH 4.5, made isotonic with sodium chloride), was selected as vehicle for the IOP-studies.
Five concentrations (0.01, 0.05, 0.2, 0.5 and 1.0% w/v) of CHF 1035 were studied. Brimonidine (0.2% w/v) was used as a positive, and vehicle (water pH 4.5) as a negative control.
The experimental animals used were normotensive Dutch Belted rabbits of either gender (n=6). A single drop (25 μl) of the test solution was instilled unilaterally into the left eye (treated eye). IOP of the rabbits (treated and untreated eyes) was measured at 1 and 0 h before, and at 0.5, 1, 2, 3, 4, 5, 6 and 7 h after topical eyedrop administration. IOP at the time of eyedrop administration (0 h) was used as a baseline value. IOP was measured using a BioRad Pneumatonometer. More detailed description of the IOP measurement procedure can be found in Pharm. Res. 14, 1738-1743, 1997 and Curr. Eye Res. 14, 791-797, 1995. All the studies were set up using a randomized crossover design. At least 72 h of wash-out time was allowed for each rabbit between dosings. The irritation caused by an instilled eyedrop were evaluated by recording the extent of eyelid closure after topical eyedrop administration.

Ocular tolerability = type: in vivo
pKa = type: physicochemical
Text: The higher apparent partition coefficient would be more favorable for ophthalmic absorption. However, an acid aqueous solution should be used as a vehicle for eyedrop administration due to the better chemical stability of CHF 1035 in such pH range. The theoretical log Papp of the corresponding not esterified derivative turned out to be −0.9 at pH 7.4.

With `CNC1CCc2c(ccc(OC(=O)C(C)C)c2OC(=O)C(C)C)C1` (racemic) [CHF 1035, (±)-(R,S)-5,6-diisobutyryloxy-2-methylaminotetralin] as the compound, how does the “IOP changes (mean ± SEM) in the treated eye” value ([1]; 1.0% w/v, 300 min) read?
Its value is −5.8 ± 1.6 mmHg.

And the “IOP changes (mean ± SEM) in the treated eye” value ([1]; 1.0% w/v, 360 min)?
Its value is −6.6 ± 1.6 mmHg.

What about the “IOP changes (mean ± SEM) in the treated eye” value ([1]; 1.0% w/v, 420 min) of the same compound?
The value was −5.3 ± 1.5 mmHg.

And the “IOP changes (mean ± SEM) in the untreated eye” value ([1]; 0.01% w/v, 0 min)?
The value was 0.0 ± 0.0 mmHg.

And the “IOP changes (mean ± SEM) in the untreated eye” value ([1]; 0.01% w/v, 30 min)?
The value was −1.0 ± 1.1 mmHg.

And the “IOP changes (mean ± SEM) in the untreated eye” value ([1]; 0.01% w/v, 60 min)?
The value was −1.9 ± 1.2 mmHg.

What about the “IOP changes (mean ± SEM) in the untreated eye” value ([1]; 0.01% w/v, 120 min) of the same compound?
The value was −1.6 ± 1.0 mmHg.

What about the “IOP changes (mean ± SEM) in the untreated eye” value ([1]; 0.01% w/v, 180 min) of the same compound?
Its value is −0.5 ± 0.7 mmHg.

What about the “IOP changes (mean ± SEM) in the untreated eye” value ([1]; 0.01% w/v, 240 min) of the same compound?
Its value is −1.4 ± 0.7 mmHg.

What about the “IOP changes (mean ± SEM) in the untreated eye” value ([1]; 0.01% w/v, 300 min) of the same compound?
The value was −1.7 ± 0.4 mmHg.

And the “IOP changes (mean ± SEM) in the untreated eye” value ([1]; 0.01% w/v, 360 min)?
Its value is 0.0 ± 0.6 mmHg.

And the “IOP changes (mean ± SEM) in the untreated eye” value ([1]; 0.01% w/v, 420 min)?
Its value is 0.4 ± 0.7 mmHg.

And the “IOP changes (mean ± SEM) in the untreated eye” value ([1]; 0.05% w/v, 0 min)?
Its value is 0.0 ± 0.0 mmHg.

And the “IOP changes (mean ± SEM) in the untreated eye” value ([1]; 0.05% w/v, 30 min)?
The value was 0.0 ± 0.6 mmHg.

What about the “IOP changes (mean ± SEM) in the untreated eye” value ([1]; 0.05% w/v, 60 min) of the same compound?
The value was 0.1 ± 0.7 mmHg.

What about the “IOP changes (mean ± SEM) in the untreated eye” value ([1]; 0.05% w/v, 120 min) of the same compound?
Its value is −1.5 ± 0.8 mmHg.

What about the “IOP changes (mean ± SEM) in the untreated eye” value ([1]; 0.05% w/v, 180 min) of the same compound?
The value was −0.4 ± 1.0 mmHg.

What about the “IOP changes (mean ± SEM) in the untreated eye” value ([1]; 0.05% w/v, 240 min) of the same compound?
Its value is −1.0 ± 0.4 mmHg.

What about the “IOP changes (mean ± SEM) in the untreated eye” value ([1]; 0.05% w/v, 300 min) of the same compound?
Its value is −1.9 ± 0.9 mmHg.

And the “IOP changes (mean ± SEM) in the untreated eye” value ([1]; 0.05% w/v, 360 min)?
The value was −0.6 ± 1.2 mmHg.

And the “IOP changes (mean ± SEM) in the untreated eye” value ([1]; 0.05% w/v, 420 min)?
The value was 0.3 ± 0.7 mmHg.

What about the “IOP changes (mean ± SEM) in the untreated eye” value ([1]; 0.2% w/v, 0 min) of the same compound?
The value was 0.0 ± 0.0 mmHg.

What about the “IOP changes (mean ± SEM) in the untreated eye” value ([1]; 0.2% w/v, 30 min) of the same compound?
The value was 1.0 ± 0.8 mmHg.

What about the “IOP changes (mean ± SEM) in the untreated eye” value ([1]; 0.2% w/v, 60 min) of the same compound?
The value was 0.5 ± 1.2 mmHg.

What about the “IOP changes (mean ± SEM) in the untreated eye” value ([1]; 0.2% w/v, 120 min) of the same compound?
Its value is 0.0 ± 0.9 mmHg.

And the “IOP changes (mean ± SEM) in the untreated eye” value ([1]; 0.2% w/v, 180 min)?
The value was −1.5 ± 1.2 mmHg.

What about the “IOP changes (mean ± SEM) in the untreated eye” value ([1]; 0.2% w/v, 240 min) of the same compound?
Its value is −1.6 ± 1.1 mmHg.

What about the “IOP changes (mean ± SEM) in the untreated eye” value ([1]; 0.2% w/v, 300 min) of the same compound?
Its value is −1.1 ± 1.1 mmHg.

What about the “IOP changes (mean ± SEM) in the untreated eye” value ([1]; 0.2% w/v, 360 min) of the same compound?
The value was −0.7 ± 1.0 mmHg.

And the “IOP changes (mean ± SEM) in the untreated eye” value ([1]; 0.2% w/v, 420 min)?
The value was 0.0 ± 0.8 mmHg.

And the “IOP changes (mean ± SEM) in the untreated eye” value ([1]; 0.5% w/v, 0 min)?
Its value is 0.0 ± 0.0 mmHg.

And the “IOP changes (mean ± SEM) in the untreated eye” value ([1]; 0.5% w/v, 30 min)?
The value was 2.9 ± 0.8 mmHg.

What about the “IOP changes (mean ± SEM) in the untreated eye” value ([1]; 0.5% w/v, 60 min) of the same compound?
The value was 2.4 ± 0.7 mmHg.

And the “IOP changes (mean ± SEM) in the untreated eye” value ([1]; 0.5% w/v, 120 min)?
Its value is 1.4 ± 0.4 mmHg.

And the “IOP changes (mean ± SEM) in the untreated eye” value ([1]; 0.5% w/v, 180 min)?
The value was 0.0 ± 0.5 mmHg.

What about the “IOP changes (mean ± SEM) in the untreated eye” value ([1]; 0.5% w/v, 240 min) of the same compound?
Its value is −0.2 ± 0.7 mmHg.

And the “IOP changes (mean ± SEM) in the untreated eye” value ([1]; 0.5% w/v, 300 min)?
Its value is −0.9 ± 0.4 mmHg.

What about the “IOP changes (mean ± SEM) in the untreated eye” value ([1]; 0.5% w/v, 360 min) of the same compound?
Its value is −0.7 ± 0.6 mmHg.

What about the “IOP changes (mean ± SEM) in the untreated eye” value ([1]; 0.5% w/v, 420 min) of the same compound?
The value was −0.2 ± 0.3 mmHg.

What about the “IOP changes (mean ± SEM) in the untreated eye” value ([1]; 1.0% w/v, 0 min) of the same compound?
Its value is 0.0 ± 0.0 mmHg.

What about the “IOP changes (mean ± SEM) in the untreated eye” value ([1]; 1.0% w/v, 30 min) of the same compound?
The value was 2.2 ± 0.9 mmHg.

What about the “IOP changes (mean ± SEM) in the untreated eye” value ([1]; 1.0% w/v, 60 min) of the same compound?
Its value is 1.2 ± 1.2 mmHg.

What about the “IOP changes (mean ± SEM) in the untreated eye” value ([1]; 1.0% w/v, 120 min) of the same compound?
Its value is 1.0 ± 0.8 mmHg.

What about the “IOP changes (mean ± SEM) in the untreated eye” value ([1]; 1.0% w/v, 180 min) of the same compound?
Its value is −2.5 ± 1.3 mmHg.

And the “IOP changes (mean ± SEM) in the untreated eye” value ([1]; 1.0% w/v, 240 min)?
The value was −1.8 ± 0.6 mmHg.

What about the “IOP changes (mean ± SEM) in the untreated eye” value ([1]; 1.0% w/v, 300 min) of the same compound?
The value was −0.7 ± 0.8 mmHg.

What about the “IOP changes (mean ± SEM) in the untreated eye” value ([1]; 1.0% w/v, 360 min) of the same compound?
The value was −0.2 ± 1.1 mmHg.

What about the “IOP changes (mean ± SEM) in the untreated eye” value ([1]; 1.0% w/v, 420 min) of the same compound?
The value was −0.9 ± 1.0 mmHg.

What about the “concentration up to which well tolerated (no redness, blinking or other side effects)” value (Ocular tolerability) of the same compound?
The value was “up to 5%”.

And the pKa (pKa)?
Its pKa is 9.4.

Source: patent US6953813B1, “2-Aminotetralin derivatives for the therapy of glaucoma” (Chiesi Farmaceutici S.p.A., priority 1999, dated 2005)
